Experiments:
Conditions in all cases: NADPH co-substrate
ScAad10^-35Cp = biological target: T1, ScAad10^-35Cp (Saccharomyces cerevisiae, UniProt P47182); test: spectrophotometric NADPH consumption at […] nm; format: biochemical
T1 construct: gene AAD10; resurrected pseudogene: in-frame upstream 264 bp (88 residues) restored to annotated Aad10, stop TAG to CAG (Gln) at nt -35; annotated natural ORF (YJR155W) lacks these residues; N-terminal His6-GST and C-terminal His6 tags, E. coli BL21 Star
T1 sequence (P47182 1-288): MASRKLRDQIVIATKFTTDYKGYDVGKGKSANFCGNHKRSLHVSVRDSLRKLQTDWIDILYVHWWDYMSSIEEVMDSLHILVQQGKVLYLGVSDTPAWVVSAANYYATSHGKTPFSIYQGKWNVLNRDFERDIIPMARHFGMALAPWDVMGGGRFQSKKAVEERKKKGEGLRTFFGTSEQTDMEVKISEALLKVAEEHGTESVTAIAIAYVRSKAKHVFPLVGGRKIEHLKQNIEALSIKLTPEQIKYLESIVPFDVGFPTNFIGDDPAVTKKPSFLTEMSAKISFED

PcAad1p = biological target: T2, PcAad1p (Phanerodontia chrysosporium, UniProt Q01752); test: spectrophotometric NADPH consumption at […] nm; format: biochemical
T2 construct: full length, plasmid pGS-21a-PcAad1, N-terminal His6-GST and C-terminal His6 tags kept, E. coli BL21 Star; coding primer starts ATGAACATCTGGGCACCCG (MNIWAP)
T2 sequence (Q01752 1-385): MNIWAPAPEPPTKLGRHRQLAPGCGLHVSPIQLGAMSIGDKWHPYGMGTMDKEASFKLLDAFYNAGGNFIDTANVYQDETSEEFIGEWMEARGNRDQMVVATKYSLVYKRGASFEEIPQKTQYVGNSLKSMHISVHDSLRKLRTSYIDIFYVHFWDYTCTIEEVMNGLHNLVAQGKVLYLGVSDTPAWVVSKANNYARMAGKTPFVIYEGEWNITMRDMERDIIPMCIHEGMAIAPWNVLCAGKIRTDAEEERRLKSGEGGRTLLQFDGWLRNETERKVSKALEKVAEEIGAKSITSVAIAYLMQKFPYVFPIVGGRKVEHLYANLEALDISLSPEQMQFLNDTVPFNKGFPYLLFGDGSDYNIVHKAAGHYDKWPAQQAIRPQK

purified protein = substrate: O=Cc1ccc(CO)o1; test: purified protein; format: biochemical, Phanerodontia chrysosporium

Molecule: O=Cc1ccc(CO)o1 [hydroxymethylfurfural]
- Km (ScAad10^-35Cp): 608 ± 246 µM

Molecule: COc1ccc(C=O)cc1 [4-methoxybenzaldehyde]
- Km (PcAad1p): 87.3 ± 116 µM

Molecule: O=CCc1ccccc1 [phenylacetaldehyde]
- Km (PcAad1p): 527 ± 72.5 µM

B1: PcAad1p (Phanerodontia chrysosporium) (protein)
chain: T2 sequence (Q01752 1-385)
notes: full length, plasmid pGS-21a-PcAad1, N-terminal His6-GST and C-terminal His6 tags kept, E. coli BL21 Star; coding primer starts … (MNIWAP)
- Km (purified protein): 171 ± 36.7 µM
- Vmax (purified protein): 2.40 ± 0.27 in micromoles per minute per mg

From publication PMC5734042, “Deciphering the Origin, Evolution, and Physiological Function of the Subtelomeric Aryl-Alcohol Dehydrogenase Gene Family in the Yeast Saccharomyces cerevisiae” (Applied and Environmental Microbiology, 2017)
